Values after ≈ are worked out from the molar mass of the structure shown.
Assays:
[1] = test system: Staphylococcus aureus; assay: Antibacterial activity against methicillin-resistant Staphylococcus aureus isolate 3 after 24 hrs by broth microdilution method; type: functional; details: isolate 3, 24 h
[2] = test system: Staphylococcus aureus; assay: Antibacterial activity against methicillin-resistant Staphylococcus aureus isolate 14 after 24 hrs by broth microdilution method; type: functional; details: isolate 14, 24 h
[3] = test system: Staphylococcus aureus; assay: Antibacterial activity against methicillin-resistant Staphylococcus aureus isolate 13 after 24 hrs by broth microdilution method; type: functional; details: isolate 13, 24 h
[4] = test system: Staphylococcus aureus; assay: Antibacterial activity against methicillin-resistant Staphylococcus aureus isolate 6 after 24 hrs by broth microdilution method; type: functional; details: isolate 6, 24 h
[5] = test system: Staphylococcus aureus; assay: Antibacterial activity against methicillin-resistant Staphylococcus aureus isolate 8 after 24 hrs by broth microdilution method; type: functional; details: isolate 8, 24 h
[6] = test system: Staphylococcus aureus; assay: Antibacterial activity against methicillin-resistant Staphylococcus aureus isolate 12 after 24 hrs by broth microdilution method; type: functional; details: isolate 12, 24 h
[7] = test system: Staphylococcus aureus; assay: Antibacterial activity against methicillin-resistant Staphylococcus aureus isolate 10 after 24 hrs by broth microdilution method; type: functional; details: isolate 10, 24 h
[8] = test system: Staphylococcus aureus; assay: Antibacterial activity against methicillin-resistant Staphylococcus aureus isolate 2 after 24 hrs by broth microdilution method; type: functional; details: isolate 2, 24 h
[9] = test system: Staphylococcus aureus; assay: Antibacterial activity against methicillin-sensitive Staphylococcus aureus ATCC 25923 after 24 hrs by broth microdilution method; type: functional; details: ATCC 25923, 24 h
[10] = Cytotoxicity against african green monkey Vero cells assessed as cell death after 72 hrs by MTT assay; type: cell-based; details: chlorocebus sabaeus
[11] = test system: Staphylococcus aureus; assay: Antibacterial activity against methicillin-resistant Staphylococcus aureus isolate 1 after 24 hrs by broth microdilution method; type: functional; details: isolate 1, 24 h
[12] = test system: Staphylococcus aureus; assay: Antibacterial activity against methicillin-resistant Staphylococcus aureus isolate 4 after 24 hrs by broth microdilution method; type: functional; details: isolate 4, 24 h
[13] = test system: Staphylococcus aureus; assay: Antibacterial activity against methicillin-resistant Staphylococcus aureus isolate 7 after 24 hrs by broth microdilution method; type: functional; details: isolate 7, 24 h
[14] = test system: Staphylococcus aureus; assay: Antibacterial activity against methicillin-resistant Staphylococcus aureus isolate 5 after 24 hrs by broth microdilution method; type: functional; details: isolate 5, 24 h
[15] = test system: Staphylococcus aureus; assay: Antibacterial activity against methicillin-resistant Staphylococcus aureus isolate 9 after 24 hrs by broth microdilution method; type: functional; details: isolate 9, 24 h
[16] = test system: Staphylococcus aureus; assay: Antibacterial activity against methicillin-resistant Staphylococcus aureus isolate 11 after 24 hrs by broth microdilution method; type: functional; details: isolate 11, 24 h
[17] = test system: Vero; assay: Cytotoxicity against African green monkey Vero cells assessed as inhibition of cell growth after 72 hrs by MTT assay; type: cell-based; details: Chlorocebus sabaeus
[18] = test system: Staphylococcus aureus; assay: Selectivity index, Ratio of CC50 for african green monkey Vero cells to IC50 for Staphylococcus aureus
[19] = test system: Staphylococcus aureus; assay: Antibacterial activity against methicillin-resistant Staphylococcus aureus isolate 4 at 30 ug after 24 hrs by disk diffusion assay; type: functional; details: isolate 4, 24 h, read-out: DIZ
[20] = test system: Staphylococcus aureus; assay: Antibacterial activity against methicillin-resistant Staphylococcus aureus isolate 5 at 30 ug after 24 hrs by disk diffusion assay; type: functional; details: isolate 5, 24 h, read-out: DIZ

| Compound | MIC [1] [µg/mL] | MIC [2] [µg/mL] | MIC [3] [µg/mL] | MIC [4] [µg/mL] | MIC [5] [µg/mL] | MIC [6] [µg/mL] | MIC [7] [µg/mL] | MIC [8] [µg/mL] | MIC [9] [µg/mL] | CC50 at 72 h [10] [µg/mL] | MIC [11] [µg/mL] | MIC [12] [µg/mL] | MIC [13] [µg/mL] | MIC [14] [µg/mL] | MIC [15] [µg/mL] | MIC [16] [µg/mL] | IC50 [17] [µg/mL] | Ratio CC50/IC50 [18] | zone of inhibition at 30 µg/disc [19] [mm] | zone of inhibition at 30 µg/disc [20] [mm] |
| --- | --- | --- | --- | --- | --- | --- | --- | --- | --- | --- | --- | --- | --- | --- | --- | --- | --- | --- | --- | --- |
| O=C(N/N=C/c1ccc([N+](=O)[O-])o1)c1ccccc1 | 62.5 (≈ 241 µM) | 62.5 (≈ 241 µM) | 62.5 (≈ 241 µM) | 62.5 (≈ 241 µM) | 125 (≈ 482 µM) | 62.5 (≈ 241 µM) | 15.6 (≈ 60.3 µM) | 62.5 (≈ 241 µM) | 62.5 (≈ 241 µM) | 489 (≈ 1890 µM) | 125 (≈ 482 µM) | 15.6 (≈ 60.3 µM) | 125 (≈ 482 µM) | 62.5 (≈ 241 µM) | 125 (≈ 482 µM) | 125 (≈ 482 µM) | 7.81 (≈ 30.1 µM) | 62.6 |  |  |
| COc1cc(C(=O)N/N=C/c2ccc([N+](=O)[O-])s2)cc(OC)c1OC | 125 (≈ 342 µM) | 125 (≈ 342 µM) | 125 (≈ 342 µM) | 125 (≈ 342 µM) | 125 (≈ 342 µM) | 125 (≈ 342 µM) | 125 (≈ 342 µM) | 125 (≈ 342 µM) | 15.6 (≈ 42.8 µM) | 857 (≈ 2340 µM) | 125 (≈ 342 µM) | 15.6 (≈ 42.8 µM) | 125 (≈ 342 µM) | 125 (≈ 342 µM) | 125 (≈ 342 µM) | 125 (≈ 342 µM) | 7.81 (≈ 21.4 µM) | 109.7 |  |  |
| COc1ccc(C(=O)/C=C/c2ccc(O)cc2)c(O)c1CC=C(C)C | ≥ 1000 | ≥ 1000 | ≥ 1000 | ≥ 1000 | ≥ 1000 | ≥ 1000 | ≥ 1000 | ≥ 1000 |  |  | ≥ 1000 | ≥ 1000 | ≥ 1000 | ≥ 1000 | ≥ 1000 | ≥ 1000 |  |  |  |  |
| O=C(/C=C/c1ccc(O)cc1)c1ccc(O)cc1O [ISOLIQUIRITIGENIN] | 62.5 (≈ 244 µM) | 62.5 (≈ 244 µM) | 62.5 (≈ 244 µM) | 62.5 (≈ 244 µM) | 62.5 (≈ 244 µM) | 62.5 (≈ 244 µM) | 62.5 (≈ 244 µM) | 62.5 (≈ 244 µM) | 31.2 (≈ 122 µM) | 464 (≈ 1810 µM) | 62.5 (≈ 244 µM) | 62.5 (≈ 244 µM) | 62.5 (≈ 244 µM) | 62.5 (≈ 244 µM) | 62.5 (≈ 244 µM) | 62.5 (≈ 244 µM) | 31.2 (≈ 122 µM) | 14.8 |  |  |
| O=C(CCc1ccccc1O)c1ccccc1 | ≥ 1000 | ≥ 1000 | ≥ 1000 | ≥ 1000 | ≥ 1000 | ≥ 1000 | ≥ 1000 | ≥ 1000 | 500 (≈ 2210 µM) |  | ≥ 1000 | ≥ 1000 | ≥ 1000 | ≥ 1000 | ≥ 1000 | ≥ 1000 |  |  |  |  |
| CO[C@@]1(NC(=O)Cc2cccs2)C(=O)N2C(C(=O)O)=C(COC(N)=O)CS[C@@H]21 [CEFOXITIN] |  |  |  |  |  |  |  |  |  |  |  |  |  |  |  |  |  |  | 22 | 33 |
| CC(C)=CCc1c(O)ccc(C(=O)/C=C/c2ccc(O)cc2)c1O [ISOBAVACHALCONE] | 62.5 (≈ 193 µM) | 62.5 (≈ 193 µM) | 125 (≈ 385 µM) | 62.5 (≈ 193 µM) | 125 (≈ 385 µM) | 62.5 (≈ 193 µM) | 125 (≈ 385 µM) | 62.5 (≈ 193 µM) | 31.2 (≈ 96.3 µM) | 727 (≈ 2240 µM) | 62.5 (≈ 193 µM) | 15.6 (≈ 48.2 µM) | 125 (≈ 385 µM) | 62.5 (≈ 193 µM) | 62.5 (≈ 193 µM) | 62.5 (≈ 193 µM) | 31.2 (≈ 96.3 µM) | 23.25 |  |  |
| CN[C@H](CC(C)C)C(=O)N[C@H]1C(=O)N[C@@H](CC(N)=O)C(=O)N[C@H]2C(=O)N[C@H]3C(=O)N[C@H](C(=O)N[C@H](C(=O)O)c4cc(O)cc(O)c4-c4cc3ccc4O)[C@H](O)c3ccc(c(Cl)c3)Oc3cc2cc(c3O[C@@H]2O[C@H](CO)[C@@H](O)[C@H](O)[C@H]2O[C@H]2C[C@](C)(N)[C@H](O)[C@H](C)O2)Oc2ccc(cc2Cl)[C@H]1O [VANCOMYCIN] | 0.8 (≈ 0.552 µM) | 0.8 (≈ 0.552 µM) | 0.8 (≈ 0.552 µM) | 0.4 (≈ 0.276 µM) | 0.8 (≈ 0.552 µM) | 0.8 (≈ 0.552 µM) | 0.8 (≈ 0.552 µM) | 0.8 (≈ 0.552 µM) | 0.2 (≈ 0.138 µM) |  | 0.8 (≈ 0.552 µM) | 0.8 (≈ 0.552 µM) | 0.8 (≈ 0.552 µM) | 0.4 (≈ 0.276 µM) | 0.8 (≈ 0.552 µM) | 0.8 (≈ 0.552 µM) |  |  |  |  |
| O=C(CCc1ccc(O)cc1)c1c(O)cc(O)cc1O [PHLORETIN] | 250 (≈ 912 µM) | 250 (≈ 912 µM) | 250 (≈ 912 µM) | 250 (≈ 912 µM) | 250 (≈ 912 µM) | 250 (≈ 912 µM) | 250 (≈ 912 µM) | 250 (≈ 912 µM) | 250 (≈ 912 µM) | 735 (≈ 2680 µM) | 250 (≈ 912 µM) | 250 (≈ 912 µM) | 250 (≈ 912 µM) | 250 (≈ 912 µM) | 250 (≈ 912 µM) | 250 (≈ 912 µM) | 125 (≈ 456 µM) | 5.9 |  |  |
| CC(C)=CCC/C(C)=C/Cc1c(O)ccc(C(=O)/C=C/c2ccc(O)c(CC=C(C)C)c2)c1O |  |  |  |  |  |  |  |  | 31.2 (≈ 67.7 µM) |  |  |  |  |  |  |  |  |  |  |  |
